# “Also recorded” adds a separate entry of the source. Where a SMILES comes first, the peptide text is derived from it.
# Columns and labels:
# [1] = Pharmacokinetics after intravenous bolus injection; format: in vivo, rat
# Protocol: Adult male Wistar rats weighing between 180 and 240 g were used to determine the pharmacokinetics of GPE and G2MePE. To facilitate intravenous bolus injections and blood sampling, all rats were surgically implanted with an indwelling jugular venous cannula under halothane anesthesia three days before the experiment. Groups of six rats were given a single intravenous bolus injection of either 30 mg/kg GPE or 10 mg/kg G2MePE dissolved in 0.1M succinate buffer (pH 6.5). Blood samples (about 220 μl each) were collected into heparinized tubes containing Sigma protease inhibitor cocktail for mammalian tissues at 10 and 0 min before injection of either GPE or G2MePE, and 1, 2, 4, 8, 16, 32, 64 and 128 min after injection of either GPE or G2MePE. The samples were centrifuged at 3000 g for 15 min at 4° C. and the plasma removed and stored at −80° C. until extraction and assay by either radioimmunoassay (“RIA”) or reverse phase HPLC. The RIA and HPLC methods used were conventional.
# The k and half-life (t1/2) were calculated from the slope of the linear regression line in the elimination phase of the semi-logarithmic plot of plasma concentration versus time as: Log C=−kt/2.3+log C0. Results were expressed as mean±standard error.
# [2] = tested on: hippocampal slices of heterozygous Shank3-deficient mice; assay: Hippocampal slice electrophysiology, Shank3-deficient mice (Example 13); format: in vivo, mouse; details: 15 or 60 mg/kg oral b.i.d. 14 days
# Protocol: 1 to 3 month old wild type and heterozygous Shank3-deficient mice are divided into 4 treatment groups: placebo treated wild-type, placebo treated Shank3-deficient group and two Shank3-deficient G-2-MePE treated groups. The animals are given placebo (water) or G-2-MePE formulated in water administered orally, b.i.d for 14 days. G-2-MePE is administered at two doses: 15 or 60 mg/kg.
# Post-mortem, acute hippocampal slices (350 μm) are prepared from mice using a tissue chopper. Slices are maintained and experiments are conducted at 32° C. Slices are perfused with Ringer's solution containing (in mM): NaCl, 125.0; KCl, 2.5; MgSO4, 1.3; NaH2PO4, 1.0; NaHCO3, 26.2; CaCl2, 2.5; glucose, 11.0. […] Slices are maintained for 1 hr prior to establishment of a baseline of field excitatory postsynaptic potentials (fEPSPs) recorded from stratum radiatum in area CA1, evoked by stimulation of the Schaffer collateral-commissural afferents (100 μs pulses every 30 s) with bipolar tungsten electrodes placed into area CA3. […] The EPSP initial slope (mV/ms) is determined from the average waveform of four consecutive responses. […] AMPA receptor-mediated and NMDA receptor-mediated I/O relationships are measured in the presence of ionotropic glutamate receptor antagonists: […] APV (50 μM) and 6-cyano-7-nitroquinoxaline-2,3-dione CNQX (100 μM). […]
# [3] = tested on: subjects with Rett Syndrome; assay: Placebo controlled study in subjects with Rett Syndrome (Example 15); format: in vivo, human
# Excerpt: Thirty subjects with Rett Syndrome are recruited. Subjects are female and aged between […] (Mean=12.1 SD=4.4). All subjects have an IQ<60 and mutations of the MECP2 gene. Subjects also show ether spike activity in the EEG or an increase in lower frequency bands of the EEG as detected by Fast Fourier Transform (FFT). Subjects are instructed that concomitant medications are to be stable for at least six weeks prior to study. Subjects receiving medication to treat signs of inattention are tested in the morning and instructed to take their medication in the afternoon. Subjects with QTc interval >451 msec are excluded.
# The study is a randomized double blind placebo controlled parallel study with three doses of either placebo, 10 mg/kg T.I.D oral G-2-MePE for five days, or 30 mg/kg T.I.D. oral G-2-MePE.
# Subjects are tested at baseline using the following instruments: The Rett Syndrome Natural History/Clinical Severity Scale, Aberrant Behavior Checklist Community Edition (ABC), Vinelands, Clinical Global Impression of Severity (CGI-S) and their carers completed the Caregiver Strain Questionnaire (CSQ).
# Subjects are brought into clinic on an inpatient basis to enable initial baseline recordings of EEG, ECG and respiratory rate continuously for 24 hours using polysomnography technology. Hand movements are also recorded using the Q-Sensor™. Derived EEG measures include: spikes per unit time in the EEG, overall power of frequency bands of the EEG, QTc and heart rate variability (HRV), and respiratory irregularities.
# Adverse events are also recorded using standard safety measures and the SMURF elicitation of adverse events
# Statistically, the effect of treatment with G-2-MePE is analysed by conducting a repeated analysis of covariance (ANCOVA) on the effect of treatment on change from baseline scores.
# [4] = 30 mg/kg T.I.D. oral vs placebo
compound,measurement,setting,value
"C[C@@]1(C(=O)N[C@@H](CCC(=O)O)C(=O)O)CCCN1C(=O)CN [Example G-2-MePE, Glycyl-L-2-methylprolyl-L-glutamic acid] (HELM PEPTIDE1{G.[C[C@@]1(C(=O)[*:2])CCCN1[*:1]].E}$$$$V2.0)",maximal plasma concentration relative to GPE,[1]; G-2-MePE 10 mg/kg vs GPE 30 mg/kg i.v.,about 4.8 times
same,t1/2 relative to GPE,[1]; i.v.,over 4 times
same,half-life,"[1]; male, Wistar, rat, plasma, iv, single i.v. bolus, GPE 30 mg/kg, G-2-MePE 10 mg/kg",20.7 ± 0.35 min
same,clearance,"[1]; male, Wistar, rat, plasma, iv, single i.v. bolus, GPE 30 mg/kg, G-2-MePE 10 mg/kg, read-out: estimated clearance from plasma (converted)",0.502 mL/min
same,first order rate constant,"[1]; single i.v. bolus, GPE 30 mg/kg, G-2-MePE 10 mg/kg",0.033 ± 0.001 min⁻¹
same,peak plasma concentration,"[1]; single i.v. bolus, GPE 30 mg/kg, G-2-MePE 10 mg/kg, mean±standard error",191 ± 16.1 µg/mL
same,"AMPA receptor-mediated field potentials, slope of I/O function",[2],normalizes
same,hippocampal LTP and its maintenance,[2],increased hippocampal long-term potentiation
same,EEG spike activity,[3]; [4],decreases spike activity
same,power of the delta band of the EEG,[3]; [4],decreases the power of the delta band
same,"subscales Nonverbal Communication, Epilepsy/Seizures, Hand use",[3]; [4],significant effects
same,Serious Adverse Events,[3]; 10 or 30 mg/kg T.I.D. oral,No Serious Adverse Events
same,adverse events / tolerability,[3]; 10 or 30 mg/kg T.I.D. oral,no more adverse events than are present during treatment with placebo; also recorded: well tolerated
same,increases in QTC,[3]; 10 or 30 mg/kg T.I.D. oral,No instances of increases in QTC
same,respiratory rate or heart rate variability,[3]; 10 or 30 mg/kg T.I.D. oral,No effects
same,"Rett Syndrome Natural History/Clinical Severity Score, overall","[3]; human, in vivo",no significant effect overall
same,"spikes per unit time in the EEG, overall",[3]; overall treatment effect,significant overall reduction
same,total hand movements per twenty-four hour period (Q-Sensor),[3]; significant for 30 mg/kg T.I.D.,reduces total hand movements

# — patent US20150224164A1, “TREATMENT OF AUTISM SPECTRUM DISORDERS USING GLYCYL-L-2-METHYLPROLYL-L-GLUMATIC ACID” (Neuren Pharmaceuticals Limited, priority 2013, published 2015)
